Assay results taken from the NIST ThermoML archive (doi:10.1016/j.fluid.2015.07.030).

Assay: refractive index (other wavelength) (dimensionless); xn = mol fraction of the nth substance listed
Details: 95.99 kPa, Liquid, Standard Abbe refractometry

OCCOCCOCCO [triethylene glycol] + O
Details	refractive index
303.15 K, Wavelength=644 nm, x2 = 0.5952	1.43321
303.15 K, Wavelength=644 nm, x2 = 0.6016	1.43334
303.15 K, Wavelength=644 nm, x2 = 0.6788	1.42689
303.15 K, Wavelength=644 nm, x2 = 0.7835	1.41765
303.15 K, Wavelength=644 nm, x2 = 0.8184	1.41249
303.15 K, Wavelength=644 nm, x2 = 0.8473	1.4062
303.15 K, Wavelength=644 nm, x2 = 0.8719	1.39943
303.15 K, Wavelength=644 nm, x2 = 0.8926	1.39191
303.15 K, Wavelength=644 nm, x2 = 0.9106	1.38639
303.15 K, Wavelength=644 nm, x2 = 0.9254	1.37622
303.15 K, Wavelength=644 nm, x2 = 0.9303	1.37759
303.15 K, Wavelength=644 nm, x2 = 0.9391	1.37361
303.15 K, Wavelength=644 nm, x2 = 0.951	1.36708
303.15 K, Wavelength=644 nm, x2 = 0.9599	1.36123
303.15 K, Wavelength=644 nm, x2 = 0.9708	1.35335
303.15 K, Wavelength=644 nm, x2 = 0.979	1.34838
303.15 K, Wavelength=644 nm, x2 = 0.9867	1.34244
303.15 K, Wavelength=644 nm, x2 = 0.9936	1.3363
303.15 K, Wavelength=706.5 nm, x2 = 0	1.44903
303.15 K, Wavelength=706.5 nm, x2 = 0.1056	1.44768
303.15 K, Wavelength=706.5 nm, x2 = 0.2069	1.44609
303.15 K, Wavelength=706.5 nm, x2 = 0.3104	1.44246
303.15 K, Wavelength=706.5 nm, x2 = 0.4844	1.43906
303.15 K, Wavelength=706.5 nm, x2 = 0.5016	1.4381
303.15 K, Wavelength=706.5 nm, x2 = 0.5952	1.43153
303.15 K, Wavelength=706.5 nm, x2 = 0.6016	1.43165
303.15 K, Wavelength=706.5 nm, x2 = 0.6788	1.4252
303.15 K, Wavelength=706.5 nm, x2 = 0.7835	1.41598
303.15 K, Wavelength=706.5 nm, x2 = 0.8184	1.41081
303.15 K, Wavelength=706.5 nm, x2 = 0.8473	1.40454
303.15 K, Wavelength=706.5 nm, x2 = 0.8719	1.39777
303.15 K, Wavelength=706.5 nm, x2 = 0.8926	1.39029
303.15 K, Wavelength=706.5 nm, x2 = 0.9106	1.38476
303.15 K, Wavelength=706.5 nm, x2 = 0.9254	1.37461
303.15 K, Wavelength=706.5 nm, x2 = 0.9303	1.37597
303.15 K, Wavelength=706.5 nm, x2 = 0.9391	1.37201
303.15 K, Wavelength=706.5 nm, x2 = 0.951	1.36548
303.15 K, Wavelength=706.5 nm, x2 = 0.9599	1.35966
303.15 K, Wavelength=706.5 nm, x2 = 0.9708	1.35178
303.15 K, Wavelength=706.5 nm, x2 = 0.979	1.34683
303.15 K, Wavelength=706.5 nm, x2 = 0.9867	1.34092
303.15 K, Wavelength=706.5 nm, x2 = 0.9936	1.33481
308.15 K, Wavelength=404.7 nm, x2 = 0	1.46397
308.15 K, Wavelength=404.7 nm, x2 = 0.1056	1.46262
308.15 K, Wavelength=404.7 nm, x2 = 0.2069	1.46101
308.15 K, Wavelength=404.7 nm, x2 = 0.3104	1.45847
308.15 K, Wavelength=404.7 nm, x2 = 0.4844	1.45365
308.15 K, Wavelength=404.7 nm, x2 = 0.5016	1.45268
308.15 K, Wavelength=404.7 nm, x2 = 0.5952	1.44587
308.15 K, Wavelength=404.7 nm, x2 = 0.6016	1.44608
308.15 K, Wavelength=404.7 nm, x2 = 0.6788	1.43943
308.15 K, Wavelength=404.7 nm, x2 = 0.7835	1.43059
308.15 K, Wavelength=404.7 nm, x2 = 0.8184	1.4247
308.15 K, Wavelength=404.7 nm, x2 = 0.8473	1.41822
308.15 K, Wavelength=404.7 nm, x2 = 0.8719	1.41127
308.15 K, Wavelength=404.7 nm, x2 = 0.8926	1.40352
308.15 K, Wavelength=404.7 nm, x2 = 0.9106	1.39814
308.15 K, Wavelength=404.7 nm, x2 = 0.9254	1.38807
308.15 K, Wavelength=404.7 nm, x2 = 0.9303	1.38901
308.15 K, Wavelength=404.7 nm, x2 = 0.9391	1.38539
308.15 K, Wavelength=404.7 nm, x2 = 0.951	1.37872
308.15 K, Wavelength=404.7 nm, x2 = 0.9599	1.37231
308.15 K, Wavelength=404.7 nm, x2 = 0.9708	1.36448
308.15 K, Wavelength=404.7 nm, x2 = 0.979	1.35959
308.15 K, Wavelength=404.7 nm, x2 = 0.9867	1.35319
308.15 K, Wavelength=404.7 nm, x2 = 0.9936	1.34702
308.15 K, Wavelength=435.8 nm, x2 = 0	1.46043
308.15 K, Wavelength=435.8 nm, x2 = 0.1056	1.4591
